Measurements as given in patent publication US20170152263A1, “Substituted Indazole Compounds as IRAK4 Inhibitors” (AURIGENE DISCOVERY TECHNOLOGIES LIMITED, priority 2014, published 2017).
Where a name gives a salt, the structure may show the parent alone.

Target: T1, recombinant IRAK-4 kinase (Homo sapiens, UniProt Q9NWZ3)
T1 construct: purchased Millipore, USA
T1 sequence (Q9NWZ3 1-460): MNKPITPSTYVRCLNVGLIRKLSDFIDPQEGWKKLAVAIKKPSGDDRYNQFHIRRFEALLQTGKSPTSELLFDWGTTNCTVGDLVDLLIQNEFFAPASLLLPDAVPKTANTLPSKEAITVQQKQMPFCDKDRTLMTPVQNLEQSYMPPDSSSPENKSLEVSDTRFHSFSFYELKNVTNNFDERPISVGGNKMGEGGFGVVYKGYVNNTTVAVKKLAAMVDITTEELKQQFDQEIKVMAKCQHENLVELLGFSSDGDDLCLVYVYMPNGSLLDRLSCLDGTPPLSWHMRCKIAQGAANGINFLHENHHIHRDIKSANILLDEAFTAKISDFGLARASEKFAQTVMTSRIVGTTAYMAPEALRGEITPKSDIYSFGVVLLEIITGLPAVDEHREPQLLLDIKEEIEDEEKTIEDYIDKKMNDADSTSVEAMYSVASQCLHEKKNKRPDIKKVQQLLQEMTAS
Test: IRAK-4 biochemical assay (TR-FRET)
Details: IRAK-4 enzyme, 20 μM ATP; for inhibition at 0.1 µM: compound at 0.1 μM; for inhibition at 1 µM: compound at 1 μM; for IC50: dose response
Description: Compounds were tested for their potential to inhibit IRAK-4 enzyme in a TR-FRET assay using recombinant IRAK-4 kinase from Millipore, USA. The assay buffer was 50 mM Tris-HCl pH 7.5, 20 mM MgCl2, 1 mM EGTA, 2 mM DTT, 3 mM MnCl2 and 0.01% Tween 20.5 ng of IRAK-4 kinase was used for the assay. After pre-incubation of enzyme with test compound for 30 minutes at room temperature, a substrate mixture containing 100 nM Biotin Histone H3 (Millipore, USA) and 20 μM ATP (Sigma, USA) was added and the reaction was incubated for 30 min. Post incubation, the reaction was stopped by the addition of stop mix containing 40 mM EDTA, 1 nM of Europium-Anti-Phospho-Histone H3 (Ser10) antibody (Perkin Elmer, USA) and 20 nM SureLight Allophycocyanin-Streptavidin (Perkin Elmer, USA). The fluorescence emission at 615 nm and 665 nm were measured at an excitation of 340 nm and the percent inhibition was estimated from the ratio of the fluorescence intensities [(F665/F615)×10000]. […] The IC50 values were estimated by fitting the dose-response data to sigmoidal dose response (variable slope), curve fitting program using Graphpad Prism software Version 6.01.

Row | inhibition at 0.1 µM [%] | inhibition at 1 µM [%] | IC50 [nM] | SMILES
1 | 24 | 71 | > 250 | Cn1ncc2cc(N3CC[C@H](O)C3)c(NC(=O)c3cccc(N4CC[C@H](O)C4)n3)cc21 [Example 25, 6-((S)-3-hydroxypyrrolidin-1-yl)—N—(5-((S)-3-hydroxypyrrolidin-1-yl)-1-methyl-1H-indazol-6-yl)picolinamide]
2 | 93 | 83 | > 250 | Cn1cc2cc(N3CCCCC3)c(NC(=O)c3cccc(N4CC[C@H](N)C4)n3)cc2n1 [Example 7, (S)-6-(3-aminopyrrolidin-1-yl)—N—(2-methyl-5-(piperidin-1-yl)-2H-indazol-6-yl)picolinamide]
3 | 96 | 92 | < 100 | Cn1ncc2cc(N3CC[C@H](O)C3)c(NC(=O)c3coc(-c4ccnc5[nH]ccc45)n3)cc21 [Example 26, (S)—N—(5-(3-hydroxypyrrolidin-1-yl)-1-methyl-1H-indazol-6-yl)-2-(1H-pyrrolo[2,3-b]pyridin-4-yl)oxazole-4-carboxamide]
4 | 0 | 15 | – | Cc1nn(C)c2cc(NC(=O)c3coc(-c4ccnc(N)c4)n3)c(N3CCC(CO)CC3)cc12 [Example 43, 2-(2-aminopyridin-4-yl)—N—(5-(4-(hydroxymethyl)piperidin-1-yl)-1,3-dimethyl-1H-indazol-6-yl)oxazole-4-carboxamide hydrochloride]
5 | 93 | 95 | < 100 | Cc1cc(-c2nc(C(=O)Nc3cc4c(cnn4C)cc3N3CCC(O)CC3)co2)ccn1 [Example 17, N—(5-(4-hydroxypiperidin-1-yl)-1-methyl-1H-indazol-6-yl)-2-(2-methylpyridin-4-yl)oxazole-4-carboxamide]
6 | 96 | 98 | < 100 | Cn1ncc2cc(N3CC[C@H](O)C3)c(NC(=O)c3coc(-c4ccnc(N)c4F)n3)cc21 [Example 28, (S)-2-(2-amino-3-fluoropyridin-4-yl)—N—(5-(3-hydroxypyrrolidin-1-yl)-1-methyl-1H-indazol-6-yl)oxazole-4-carboxamide]
7 | 83 | 97 | < 100 | CCc1cc(-c2nc(C(=O)Nc3cc4c(cnn4C)cc3N3CC[C@H](O)C3)co2)ccn1 [Example 42, (S)-2-(2-ethylpyridin-4-yl)—N—(5-(3-hydroxypyrrolidin-1-yl)-1-methyl-1H-indazol-6-yl)oxazole-4-carboxamide hydrochloride]
8 | 49 | 92 | 100 to 250 | Cc1cc(-c2ncc(C(=O)Nc3cc4c(cnn4C)cc3N3CC[C@H](O)C3)o2)ccn1 [Example 39, (S)—N—(5-(3-hydroxypyrrolidin-1-yl)-1-methyl-1H-indazol-6-yl)-2-(2-methylpyridin-4-yl)oxazole-5-carboxamide]
9 | 96 | 90 | 100 to 250 | Cn1cc2cc(N3CCCCC3)c(NC(=O)c3coc(N4CC[C@H](O)C4)n3)cc2n1 [Example 6, (S)-2-(3-hydroxypyrrolidin-1-yl)—N—(2-methyl-5-(piperidin-1-yl)-2H-indazol-6-yl)oxazole-4-carboxamide]
10 | 95 | 98 | < 100 | Cc1cc(-c2nc(C(=O)Nc3cc4c(cnn4C)cc3N3CC[C@H](O)C3)co2)ccn1 [Example 11, (S)—N—(5-(3-hydroxypyrrolidin-1-yl)-1-methyl-1H-indazol-6-yl)-2-(2-methylpyridin-4-yl)oxazole-4-carboxamide hydrochloride]
11 | 79 | – | < 100 | Cc1cc(-c2nc(C(=O)Nc3cc4nn(C)cc4cc3N3CCCC(O)C3)co2)ccn1 (centres unmarked) [Example 13, N—(5-(3-hydroxypiperidin-1-yl)-2-methyl-2H-indazol-6-yl)-2-(2-methylpyridin-4-yl)oxazole-4-carboxamide hydrochloride]
12 | – | 84 | 100 to 250 | Cn1ncc2cc(N3CCCCC3)c(NC(=O)c3coc(N4CC[C@H](N)C4)n3)cc21 [Example 4, (S)-2-(3-aminopyrrolidin-1-yl)—N—(1-methyl-5-(piperidin-1-yl)-1H-indazol-6-yl)oxazole-4-carboxamide]
13 | 2 | 12 | – | Cc1cc(-c2nc(C(=O)Nc3cc4c(cc3N3CCC(CO)CC3)c(C)nn4C)co2)ccn1 [Example 45, N—(5-(4-(hydroxymethyl)piperidin-1-yl)-1,3-dimethyl-1H-indazol-6-yl)-2-(2-methylpyridin-4-yl)oxazole-4-carboxamide hydrochloride]
14 | 94 | – | < 100 | Cc1cc(-c2nc(C(=O)Nc3cc4c(cnn4C)cc3N3CCCC(O)C3)co2)ccn1 (centres unmarked) [Example 12, N—(5-(3-hydroxypiperidin-1-yl)-1-methyl-1H-indazol-6-yl)-2-(2-methylpyridin-4-yl)oxazole-4-carboxamide hydrochloride]
15 | – | 96 | < 100 | Cc1cc(-c2nc(C(=O)Nc3cc4c(cnn4C)cc3N3CCCCC3)co2)ccn1 [Example 1, N-(1-methyl-5-(piperidin-1-yl)-1H-indazol-6-yl)-2-(2-methylpyridin-4-yl)oxazole-4-carboxamide hydrochloride]
16 | 25 | 87 | 100 to 250 | Cc1cc(-c2nc(C(=O)Nc3cc4c(cnn4C4CC4)cc3N3CC[C@H](O)C3)co2)ccn1 [Example 33, (S)—N—(1-cyclopropyl-5-(3-hydroxypyrrolidin-1-yl)-1H-indazol-6-yl)-2-(2-methylpyridin-4-yl)oxazole-4-carboxamide hydrochloride]
17 | 93 | 97 | < 100 | Cn1ncc2cc(N3CC[C@H](O)C3)c(NC(=O)c3coc(-c4ccnc(C5CC5)c4)n3)cc21 [Example 46, (S)-2-(2-cyclopropylpyridin-4-yl)—N—(5-(3-hydroxypyrrolidin-1-yl)-1-methyl-1H-indazol-6-yl)oxazole-4-carboxamide hydrochloride]
18 | 0 | 20 | – | CN1CCN(c2nc(C(=O)Nc3cc4c(cnn4C)cc3N3CC[C@H](O)C3)co2)CC1 [Example 30, (S)—N—(5-(3-hydroxypyrrolidin-1-yl)-1-methyl-1H-indazol-6-yl)-2-(4-methylpiperazin-1-yl)oxazole-4-carboxamide hydrochloride]
19 | 0 | 0 | – | Cn1ncc2cc(N3CC[C@H](O)C3)c(NC(=O)c3coc(C4CCNCC4)n3)cc21 [Example 37, (S)—N—(5-(3-hydroxypyrrolidin-1-yl)-1-methyl-1H-indazol-6-yl)-2-(piperidin-4-yl)oxazole-4-carboxamide hydrochloride]
20 | 81 | 95 | < 100 | Cn1ncc2cc(N3CC[C@H](O)C3)c(NC(=O)c3coc(-c4cccnc4N)n3)cc21 [Example 23, (S)-2-(2-aminopyridin-3-yl)—N—(5-(3-hydroxypyrrolidin-1-yl)-1-methyl-1H-indazol-6-yl)oxazole-4-carboxamide]
21 | 96 | 97 | < 100 | Cc1cc(-c2nc(C(=O)Nc3cc4c(cnn4C)cc3N3CCC(CO)CC3)co2)ccn1 [Example 20, N-(5-(4-(hydroxymethyl)piperidin-1-yl)-1-methyl-1H-indazol-6-yl)-2-(2-methylpyridin-4-yl)oxazole-4-carboxamide]
22 | 0 | 17 | – | Cc1cc(-c2nc(C(=O)Nc3cc4c(cnn4C)cc3N3CC[C@H](O)C3)c(C)o2)ccn1 [Example 41, (S)—N—(5-(3-hydroxypyrrolidin-1-yl)-1-methyl-1H-indazol-6-yl)-5-methyl-2-(2-methylpyridin-4-yl)oxazole-4-carboxamide hydrochloride]

Row | SMILES | inhibition at 0.1 µM [%] | inhibition at 1 µM [%] | IC50 [nM]
23 | Cc1cc(-c2nc(C(=O)Nc3cc4c(cnn4C)cc3N3C4CCC3CC(O)C4)co2)ccn1 (centres unmarked) [Example 38, N—(5-(3-hydroxy-8-azabicyclo[3.2.1]octan-8-yl)-1-methyl-1H-indazol-6-yl)-2-(2-methylpyridin-4-yl)oxazole-4-carboxamide] | 5 | 77 | > 250
24 | Cn1ncc2cc(N3CC[C@H](O)C3)c(NC(=O)c3coc(C4=CCNCC4)n3)cc21 [Example 34, (S)—N—(5-(3-hydroxypyrrolidin-1-yl)-1-methyl-1H-indazol-6-yl)-2-(1,2,3,6-tetrahydropyridin-4-yl)oxazole-4-carboxamide hydrochloride] | 0 | 41 | –
